Assay results as given in ChEMBL document CHEMBL4373747 (ACS Med Chem Lett, 2020).

Tests used:
Histone deacetylase 2 = Histone deacetylase 2 (Homo sapiens, UniProt Q92769); assay: Inhibition of recombinant full length human HDAC2 expressed in baculovirus infected Sf9 cells using FAM-RHKK-Ac as substrate incubated for 17 hrs by electrophoretic mobility shift assay
MV4-11 [1] = assay: Induction of apoptosis in human MV4-11 cells assessed as late apoptotic cells incubated for 18 hrs by annexin V FITC and PI based flow cytometry; assay type: functional, cell-based
[2] = target: T1, Protein deacetylase HDAC6 (Homo sapiens) (UniProt Q9UBN7); assay: (§1) Inhibition of HDAC6 in human HeLa cells incubated for 15 mins by ELISA; assay type: cell-based
T1 sequence (whole entry): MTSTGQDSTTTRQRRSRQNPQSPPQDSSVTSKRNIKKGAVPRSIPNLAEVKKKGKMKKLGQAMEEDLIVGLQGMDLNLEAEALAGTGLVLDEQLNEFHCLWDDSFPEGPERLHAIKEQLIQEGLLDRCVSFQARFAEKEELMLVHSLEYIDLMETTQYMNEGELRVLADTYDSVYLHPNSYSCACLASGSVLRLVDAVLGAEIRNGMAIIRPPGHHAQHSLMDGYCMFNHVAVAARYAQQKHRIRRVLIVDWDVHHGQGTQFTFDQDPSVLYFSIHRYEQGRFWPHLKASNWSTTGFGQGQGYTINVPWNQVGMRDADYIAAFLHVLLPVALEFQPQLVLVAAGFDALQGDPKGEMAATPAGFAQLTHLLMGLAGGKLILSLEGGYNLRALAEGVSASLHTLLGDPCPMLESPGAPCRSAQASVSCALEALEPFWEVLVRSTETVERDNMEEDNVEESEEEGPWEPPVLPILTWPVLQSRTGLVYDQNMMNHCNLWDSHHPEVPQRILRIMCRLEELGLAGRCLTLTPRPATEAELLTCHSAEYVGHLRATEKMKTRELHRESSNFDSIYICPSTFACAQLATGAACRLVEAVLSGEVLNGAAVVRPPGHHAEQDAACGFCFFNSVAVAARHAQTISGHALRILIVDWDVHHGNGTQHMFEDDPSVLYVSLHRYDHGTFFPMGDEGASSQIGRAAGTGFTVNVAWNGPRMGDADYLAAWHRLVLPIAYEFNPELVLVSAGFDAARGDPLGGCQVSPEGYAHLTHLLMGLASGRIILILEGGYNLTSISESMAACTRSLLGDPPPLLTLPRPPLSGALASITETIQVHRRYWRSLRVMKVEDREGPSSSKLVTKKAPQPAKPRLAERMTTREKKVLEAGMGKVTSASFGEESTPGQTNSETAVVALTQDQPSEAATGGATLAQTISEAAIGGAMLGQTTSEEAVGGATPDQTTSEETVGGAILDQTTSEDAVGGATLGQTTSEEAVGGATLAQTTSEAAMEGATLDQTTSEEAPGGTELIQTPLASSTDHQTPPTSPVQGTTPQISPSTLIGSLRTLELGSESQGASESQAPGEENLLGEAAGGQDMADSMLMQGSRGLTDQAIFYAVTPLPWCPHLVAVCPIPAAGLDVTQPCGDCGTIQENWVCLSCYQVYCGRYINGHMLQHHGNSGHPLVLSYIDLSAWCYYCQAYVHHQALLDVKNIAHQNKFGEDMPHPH

[3] = target: T2, Protein deacetylase HDAC6 (Homo sapiens, UniProt Q9UBN7); assay: as §1; assay type: cell-based
T2 sequence (Q9UBN7 whole entry): T1 sequence (whole entry)

MV4-11 [4] = assay: Induction of apoptosis in human MV4-11 cells assessed as late apoptotic cells at 2 uM incubated for 18 hrs by annexin V FITC and PI based flow cytometry (reference value: 9.2 to 9.63 %); assay type: functional
MV4-11 [5] = assay: Induction of apoptosis in human MV4-11 cells assessed as late apoptotic cells at 1 uM incubated for 18 hrs by annexin V FITC and PI based flow cytometry (reference value: 9.2 to 9.63 %); assay type: functional
[6] = Half life in NSG mouse; assay type: ADME; conditions: in vivo
Histone deacetylase 3 = Histone deacetylase 3 (Homo sapiens, UniProt O15379); assay: Inhibition of recombinant full length human HDAC3 expressed in baculovirus infected Sf9 cells using FAM-RHKK-Ac as substrate incubated for 3 hrs by electrophoretic mobility shift assay
MV4-11 [7] = assay: Induction of apoptosis in human MV4-11 cells assessed as viable cells at 1 uM incubated for 18 hrs by annexin V FITC and PI based flow cytometry (reference value: 53.01 to 53.07 %); assay type: functional; conditions: Homo sapiens, MV4-11, 18 h; read-out: Activity
Histone deacetylase 8 = target: T3, Histone deacetylase 8 (Homo sapiens, UniProt Q9BY41); assay: Inhibition of recombinant full length human HDAC8 expressed in baculovirus infected Sf9 cells using FAM-RHKK-TFAc as substrate incubated for 3 hrs by electrophoretic mobility shift assay
T3 sequence (Q9BY41 whole entry): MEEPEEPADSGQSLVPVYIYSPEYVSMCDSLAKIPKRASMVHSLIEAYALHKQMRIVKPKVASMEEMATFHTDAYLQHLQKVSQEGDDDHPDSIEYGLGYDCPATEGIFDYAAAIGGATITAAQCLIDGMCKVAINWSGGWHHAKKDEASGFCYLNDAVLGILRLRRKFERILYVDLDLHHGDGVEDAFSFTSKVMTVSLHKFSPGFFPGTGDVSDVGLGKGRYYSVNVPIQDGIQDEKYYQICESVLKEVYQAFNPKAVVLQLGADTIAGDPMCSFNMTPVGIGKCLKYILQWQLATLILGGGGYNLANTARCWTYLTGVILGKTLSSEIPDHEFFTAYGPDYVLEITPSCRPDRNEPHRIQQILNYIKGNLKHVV

[8] = target: T4, Polyamine deacetylase HDAC10 (Homo sapiens, UniProt Q969S8); assay: Inhibition of recombinant full length human HDAC10 expressed in baculovirus infected Sf9 cells using FAM-RHKK-Ac as substrate incubated for 17 hrs by electrophoretic mobility shift assay
T4 sequence (Q969S8 whole entry): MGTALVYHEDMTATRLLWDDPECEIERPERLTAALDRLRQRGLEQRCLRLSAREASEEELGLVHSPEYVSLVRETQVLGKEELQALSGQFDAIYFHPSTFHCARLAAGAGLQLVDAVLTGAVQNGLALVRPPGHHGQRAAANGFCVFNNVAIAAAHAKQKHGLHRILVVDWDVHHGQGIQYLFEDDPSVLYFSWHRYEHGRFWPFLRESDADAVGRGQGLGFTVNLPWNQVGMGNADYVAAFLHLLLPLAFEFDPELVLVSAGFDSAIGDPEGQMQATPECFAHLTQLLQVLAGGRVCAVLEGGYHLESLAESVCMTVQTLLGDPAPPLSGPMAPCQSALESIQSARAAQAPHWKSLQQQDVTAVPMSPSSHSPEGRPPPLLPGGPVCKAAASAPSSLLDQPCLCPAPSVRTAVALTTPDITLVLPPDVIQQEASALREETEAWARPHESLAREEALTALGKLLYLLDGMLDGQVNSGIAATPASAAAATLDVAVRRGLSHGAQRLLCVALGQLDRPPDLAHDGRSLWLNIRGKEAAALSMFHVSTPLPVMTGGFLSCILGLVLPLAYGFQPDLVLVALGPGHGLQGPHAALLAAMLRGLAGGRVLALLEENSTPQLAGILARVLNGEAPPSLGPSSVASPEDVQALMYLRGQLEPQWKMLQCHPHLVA

Chain of Histone deacetylase 2 (Q92769 whole entry): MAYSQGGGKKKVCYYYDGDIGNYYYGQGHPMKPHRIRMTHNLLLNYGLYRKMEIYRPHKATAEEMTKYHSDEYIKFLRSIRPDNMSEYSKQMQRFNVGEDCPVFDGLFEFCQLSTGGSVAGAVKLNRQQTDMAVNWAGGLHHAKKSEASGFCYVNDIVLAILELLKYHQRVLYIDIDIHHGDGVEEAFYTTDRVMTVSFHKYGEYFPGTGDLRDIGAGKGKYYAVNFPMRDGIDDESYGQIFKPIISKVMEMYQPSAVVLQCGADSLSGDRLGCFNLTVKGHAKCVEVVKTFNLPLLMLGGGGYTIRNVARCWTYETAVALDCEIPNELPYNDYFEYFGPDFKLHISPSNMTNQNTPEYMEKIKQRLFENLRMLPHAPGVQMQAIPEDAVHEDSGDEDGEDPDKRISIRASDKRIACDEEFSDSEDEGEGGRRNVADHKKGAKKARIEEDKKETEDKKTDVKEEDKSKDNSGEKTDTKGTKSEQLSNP
Chain of Histone deacetylase 3 (O15379 whole entry): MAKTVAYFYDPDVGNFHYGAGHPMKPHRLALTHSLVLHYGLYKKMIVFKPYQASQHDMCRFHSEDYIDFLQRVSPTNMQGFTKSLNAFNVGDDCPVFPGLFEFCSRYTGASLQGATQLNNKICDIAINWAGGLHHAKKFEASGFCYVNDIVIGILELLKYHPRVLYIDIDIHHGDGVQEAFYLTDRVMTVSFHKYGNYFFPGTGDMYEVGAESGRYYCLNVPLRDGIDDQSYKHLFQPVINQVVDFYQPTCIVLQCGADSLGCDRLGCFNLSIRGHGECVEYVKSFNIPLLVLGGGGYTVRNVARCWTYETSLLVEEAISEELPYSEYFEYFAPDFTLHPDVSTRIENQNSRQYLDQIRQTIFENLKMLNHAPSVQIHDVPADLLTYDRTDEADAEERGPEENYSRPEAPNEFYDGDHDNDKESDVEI

In the case of `CC(C)(C)c1ccc(C(=O)Nc2ccc(C(=O)NO)cc2)cc1`, the IC50 (Histone deacetylase 2) is reported as over 1000 nM, the Activity (MV4-11 [1]) is reported as “Dose-dependent effect” and the inhibition [2] is reported as “Dose-dependent effect”. For the same molecule, the IC50 [3] was 580 nM, the Activity (MV4-11 [4]) was 30.97% and the Activity (MV4-11 [5]) was 16.08%. For the same molecule, the half-life [6] was 5 h, the IC50 (Histone deacetylase 3) was 187 nM and the viability at 1 µM (MV4-11 [7]) was 40.9%. It also gave an IC50 (Histone deacetylase 8) of 245 nM and an IC50 [8] of 899 nM.
